Experimental data published in publication PMC6934184, “Selective DNA-PKcs inhibition extends the therapeutic index of localized radiotherapy and chemotherapy” (The Journal of Clinical Investigation, 2019).

Molecular target: T1, NUAK2 (Homo sapiens, UniProt Q9H093)
T1 construct: purchased Thermo Fisher Scientific (Life Technologies) SelectScreen
Test: SelectScreen LanthaScreen
Type: binding
Details: 1 µM
Experimental: The in vitro kinase selectivity of NU5455 was determined using the SelectScreen Broad Assay Panel (Thermo Fisher Scientific) involving activity and binding assays (Supplemental Table 1). […] Class IA PI3Ks were measured using the p85α subunit.
Kinase [ATP] % Assay Kinase [ATP] % Assay Kinase [ATP] % Assay Kinase [ATP] % Assay […]
NEK2 Km app 17.8 Z CSNK1G3 (CK1 gamma 3) Km app 4.2 Z NUAK2 n/a 1.0 L KIT T670E n/a -2.8 L […]
SGK (SGK1) Km app 8.5 Z MAP4K2 (GCK) Km app 2.7 Z TLK2 n/a -0.3 L STK38 (NDR) n/a -5.9 L
MERTK (cMER) Km app 8.3 Z CDK2/cyclin A Km app 2.7 Z TGFBR1 (ALK5) n/a -0.4 L MATK (HYL) Km app -6.3 Z
FYN Km app 8.3 Z EPHA1 Km app 2.7 Z CLK3 Km app -0.5 Z ABL1 E255K Km app -6.6 Z
TEC n/a 8.1 L CDK2/cyclin E1 n/a 2.7 L MAP3K14 (NIK) n/a -0.5 L STK17A (DRAK1) n/a -6.6 L
KIT V654A n/a 8.1 L TESK2 n/a 2.7 L AKT3 (PKB gamma) Km app -0.5 Z JAK2 JH1 JH2 Km app -6.7 Z
ROS1 Km app 8.0 Z SPHK1 Km app 2.7 A MAP3K9 (MLK1) Km app -0.5 Z PRKACB (PRKAC beta) n/a -6.8 L
FGFR3 K650E Km app 7.9 Z AMPK A2/B1/G1 Km app 2.6 Z IKBKB (IKK beta) Km app -0.6 Z PDGFRA (PDGFR alpha) Km app -6.8 Z
RAF1 (cRAF) Y340D Y341D 100 7.9 Z DYRK3 Km app 2.6 Z CAMK2A (CaMKII alpha) Km app -0.6 Z NEK9 Km app -7.2 Z
PI4KA (PI4K alpha) 10 7.8 A CSNK1D (CK1 delta) Km app 2.6 Z PRKCB1 (PKC beta I) Km app -0.7 Z PDK1 Km app -7.3 Z
HIPK2 Km app 7.8 Z ACVR2A n/a 2.5 L TTK n/a -0.7 L RPS6KB1 (p70S6K) Km app -7.8 Z […]

T1 sequence (Q9H093 whole entry): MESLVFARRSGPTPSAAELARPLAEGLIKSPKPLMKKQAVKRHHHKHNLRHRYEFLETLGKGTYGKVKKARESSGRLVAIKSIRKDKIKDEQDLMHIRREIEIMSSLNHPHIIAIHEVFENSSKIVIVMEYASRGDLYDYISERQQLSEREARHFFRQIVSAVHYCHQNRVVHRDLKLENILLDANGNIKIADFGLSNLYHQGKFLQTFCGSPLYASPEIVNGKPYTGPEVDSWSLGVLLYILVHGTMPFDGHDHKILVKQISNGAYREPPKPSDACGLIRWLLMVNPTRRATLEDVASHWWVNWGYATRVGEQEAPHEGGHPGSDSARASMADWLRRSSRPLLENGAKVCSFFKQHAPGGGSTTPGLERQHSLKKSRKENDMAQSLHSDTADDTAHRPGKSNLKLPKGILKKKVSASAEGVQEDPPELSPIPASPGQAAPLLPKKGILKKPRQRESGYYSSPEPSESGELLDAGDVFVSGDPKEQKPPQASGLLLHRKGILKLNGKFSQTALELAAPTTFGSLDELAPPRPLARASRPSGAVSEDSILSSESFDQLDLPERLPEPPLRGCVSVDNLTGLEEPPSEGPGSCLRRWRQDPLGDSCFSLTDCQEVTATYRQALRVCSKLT

## CN(C(=O)CN1CCOCC1)c1ccc2sc3c(-c4cccc5c(=O)cc(N6CC7CCC(C6)O7)oc45)cccc3c2c1 [NU5455]
  % displacement: 1.0%
